Reference: PubChem BioAssay (NCI)
Where “and” joins values, the source holds several entries; their conditions need not be identical. Equal values may be shown once.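 Method: 48-hour compound exposure of cells in 96-well plates, five concentrations, linear interpolation of endpoints. At the GI50, growth is halved. Definition used: TGI = concentration required for complete inhibition of growth.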

Columns and labels:
Assay in all cases: NCI-60 cell line screen, 48 h
OVCAR-4 ovarian = test system: OVCAR-4 ovarian
SK-MEL-28 melanoma = test system: SK-MEL-28 melanoma
HCT-15 colon = test system: HCT-15 colon
OVCAR-3 ovarian = test system: OVCAR-3 ovarian
NCI/ADR-RES ovarian = test system: NCI/ADR-RES ovarian
A498 renal = test system: A498 renal
IGROV1 ovarian = test system: IGROV1 ovarian
HS 578T breast = test system: HS 578T breast
MCF7 breast = test system: MCF7 breast
UACC-257 melanoma = test system: UACC-257 melanoma

Row | Compound | TGI (OVCAR-4 ovarian) | TGI (SK-MEL-28 melanoma) | TGI (HCT-15 colon) | TGI (OVCAR-3 ovarian) | TGI (NCI/ADR-RES ovarian) [µM] | TGI (A498 renal) | TGI (IGROV1 ovarian) | TGI (HS 578T breast) | TGI (MCF7 breast) [µM] | TGI (UACC-257 melanoma) | GI50 (OVCAR-4 ovarian) | GI50 (SK-MEL-28 melanoma) | GI50 (HCT-15 colon) | GI50 (OVCAR-3 ovarian) [µM] | GI50 (NCI/ADR-RES ovarian) | GI50 (A498 renal) [µM] | GI50 (IGROV1 ovarian) | GI50 (HS 578T breast) | GI50 (MCF7 breast) | GI50 (UACC-257 melanoma)
1 | OCC12C3C4C5C3C1C5C42 (configuration not stated) | > 100 µM | > 100 µM | > 100 µM | > 100 µM | > 100 | > 100 µM | > 100 µM | > 100 µM | > 100 | > 100 µM | – | – | – | – | – | – | – | – | – | –
2 | CCOc1ccccc1C(=O)N1CCN(c2cc(Cl)cc(Cl)c2)CC1 | 18.5 µM | 22.2 µM | 10.9 µM | 12.4 µM | 5.64 | 4.36 µM | 13.9 µM | 16.4 µM | 12.2 | 25.8 µM | 0.266 µM | 3.55 µM | 0.0322 µM | 0.0391 | 0.0231 µM | 0.0288 | 0.0408 µM | 0.0327 µM | 0.0321 µM | 4.19 µM
3 | O=S(=O)(c1ccc(Cl)cc1)C(Cl)(Cl)Cl | > 63.3 µM | 24 µM | > 100 µM | 4.45 µM | > 24.5 | 13 µM | 23.5 µM | 29.2 µM | > 100 | 11.8 µM | 2.23 µM | 4.47 µM | 1.19 µM | 0.886 | 1.57 µM | 1.15 | 3.08 µM | 2.27 µM | 2.72 µM | 2.1 µM
4 | O=C1OCC2=C1C(c1ccccc1)c1cc3c(cc1N2)OCO3 (configuration not stated) | > 48.3 µM | > 100 µM | > 53.1 µM | 0.0486 µM | 1.62 | 0.498 µM | 50.2 µM | > 84.4 µM | 17.3 | > 100 µM | 0.0823 µM | 0.0428 µM | 0.0373 µM | 0.0202 | 0.0204 µM | 0.0159 | 0.0816 µM | 0.0469 µM | 0.0316 µM | 4.58 µM
5 | COc1cc2c(cc1C1COc3cc4occc4cc3C1=O)OCO2 (configuration not stated) | 36.5 µM | > 100 µM | > 100 µM | > 100 µM | > 100 | > 100 µM | > 100 µM | 89.8 µM | > 100 | > 100 µM | – | – | – | – | – | – | – | – | – | –
6 | O=C(OCc1ccc2ccccc2n1)c1cn(C2CC2)c2cc(N3CCN(Cc4ccc5ccccc5n4)CC3)c(F)cc2c1=O | > 100 µM | > 100 µM | > 100 µM | > 100 µM | > 100 | > 82.1 µM | > 100 µM | > 100 µM | > 92.7 | > 100 µM | > 100 µM | 35.4 µM | 62.6 µM | 44.9 | 61.5 µM | 25.2 | > 93.2 µM | 40.6 µM | 35 µM | > 94.2 µM
7 | Nc1nc(OCc2ccccc2)c2[nH]cnc2n1 | 365 µM and 528 µM | 400 µM and 293 µM | 400 µM and 222 µM | 400 µM and 284 µM | 414 | 183 µM and 71.3 µM | 93.3 µM and 271 µM and 34.4 µM | 49.5 µM and 57.5 µM | 355 | 400 µM and 736 µM | 41.2 µM and 43.4 µM | 46.7 µM and 62.9 µM | 25.5 µM and 21.7 µM | 33.9 | 97.2 µM and 84.9 µM | 15.2 | 25.3 µM and 9.01 µM | 18.9 µM and 18.3 µM | 41.9 µM and 41.8 µM | 39.8 µM and 157 µM
8 | CC(=O)OC12C=C(C)C(C(C)C1)C1C(=O)N(CCN3CCOCC3)C(=O)C12 (configuration not stated) | > 100 µM | – | > 100 µM | – | > 100 | > 100 µM | > 100 µM | > 100 µM | – | > 100 µM | > 100 µM | – | > 100 µM | – | > 100 µM | > 100 | > 100 µM | > 100 µM | – | > 100 µM
9 | O=C1OC(=O)C(=C\c2ccc3c(c2)OCO3)/C1=C/c1ccc2c(c1)OCO2 | > 100 µM | > 100 µM | > 100 µM | > 100 µM | > 100 | > 100 µM | > 100 µM | > 100 µM | > 100 | > 100 µM | – | – | – | – | – | – | – | – | – | –
10 | O=C(/C=C\c1cccc([N+](=O)[O-])c1)/C=C/c1cccc([N+](=O)[O-])c1 | > 100 µM | > 100 µM | > 100 µM | 4.32 µM | > 100 | > 100 µM | 6.3 µM | – | 6.68 | > 100 µM | > 100 µM | > 100 µM | 5.1 µM | 2.18 | 20.2 µM | > 100 | 2.44 µM | – | 0.655 µM | 21.4 µM
11 | CN1CCN(C(=O)c2cc(-c3ccc4ncnc(N5CCc6cc(F)c(Cl)cc65)c4c3)cnc2N)CC1 | 4.22 µM | 3.61 µM | 2.63 µM | 1.49 µM | 10.2 | 0.361 µM | 0.595 µM | 0.491 µM | 1.89 | 3.52 µM | 0.3 µM | 0.24 µM | 0.251 µM | 0.248 | 0.723 µM | 0.104 | 0.0467 µM | 0.116 µM | 0.0992 µM | 0.334 µM
12 | COc1ccc(-c2[nH]c3ccccc3c2-c2ccc(OC)cc2)cc1 | 23.6 µM | 31.5 µM | 14.1 µM | 5.27 µM | 15 | 12.8 µM | 27.5 µM | 43.8 µM | 12.4 | 23.2 µM | 7.66 µM | 8.6 µM | 3.56 µM | 2.18 | 3.82 µM | 4 | 11.2 µM | 4.41 µM | 2.87 µM | 7.22 µM
13 | CC(=O)Nc1ccc(C(O)/C(=N/N)c2nc3ccc(Cl)cc3[nH]c2=O)cc1 (configuration not stated) | > 100 µM | > 100 µM | > 100 µM | > 100 µM | > 100 | > 100 µM | > 100 µM | > 100 µM | > 100 | > 100 µM | – | – | – | – | – | – | – | – | – | –
